Data published in patent publication US11384055B2 (BIOMARIN PHARMACEUTICAL INC., priority 2017, dated 2022).

Molecular target: T1, Human GO (Homo sapiens, UniProt Q9UJM8)
T1 construct: purchased Novus Biologicals NBP1-72412
T1 sequence (Q9UJM8 1-370): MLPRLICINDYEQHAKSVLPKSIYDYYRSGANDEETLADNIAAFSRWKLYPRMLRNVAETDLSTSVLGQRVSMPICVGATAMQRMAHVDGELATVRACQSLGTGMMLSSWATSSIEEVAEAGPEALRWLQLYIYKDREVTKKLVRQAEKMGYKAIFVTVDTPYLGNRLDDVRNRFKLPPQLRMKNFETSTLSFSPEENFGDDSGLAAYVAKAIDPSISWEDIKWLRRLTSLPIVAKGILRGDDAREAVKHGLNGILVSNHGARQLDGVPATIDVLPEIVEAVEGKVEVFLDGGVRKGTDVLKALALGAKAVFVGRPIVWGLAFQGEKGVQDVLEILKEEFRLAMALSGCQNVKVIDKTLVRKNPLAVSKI
Assay: GO enzymatic assay (coupled fluorescence/HRP assay, glycolate substrate)
Assay type: biochemical
Conditions: Table 2; read-out: Range (range of IC50 values calculated from the enzymatic assays)
Summary of the method: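 Human GO incubated with glycolate substrate in 50 mM potassium phosphate, pH 7, with varying inhibitor concentrations. Activity read by coupled HRP fluorescence. IC50 taken from variable-slope sigmoidal dose-response fits of percent inhibition relative to DMSO control.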

In the case of COCCOc1ccc(-c2ccc(Oc3nn[nH]c3C(=O)O)cc2)cc1 [Compound 234, 4-((4′-(2-methoxyethoxy)-[1,1′-biphenyl]-4-yl)oxy)-1H-1,2,3-triazole-5-carboxylic acid], the IC50 is reported as < 100 nM.
In the case of CC(=O)OCOC(=O)c1[nH]nnc1Oc1ccc2cc(Cl)ccc2c1 [Compound 235, acetoxymethyl 4-((6-chloronaphthalen-2-yl)oxy)-1H-1,2,3-triazole-5-carboxylate], the IC50 is reported as < 100 nM.
O=C(O)c1[nH]nnc1Oc1ccc2cc(OC(F)F)ccc2c1 [Compound 236, 4-((6-(difluoromethoxy)naphthalen-2-yl)oxy)-1H-1,2,3-triazole-5-carboxylic acid] was tested, and the IC50 was < 100 nM.
O=C(O)c1[nH]nnc1OC1CCc2cc(F)c(F)cc2C1 (stereo not shown) [Compound 237, 4-((6,7-difluoro-1,2,3,4-tetrahydronaphthalen-2-yl)oxy)-1H-1,2,3-triazole-5-carboxylic acid] was tested, and the IC50 was < 100 nM.
With O=C(O)c1[nH]nnc1Oc1ccc(-c2cccc(C3CCOCC3)c2)cc1 [Compound 238, 4-((3′-(tetrahydro-2H-pyran-4-yl)-[1,1′-biphenyl]-4-yl)oxy)-1H-1,2,3-triazole-5-carboxylic acid 2,2,2-trifluoroacetate] the IC50 was < 100 nM.
CC(C)C(=O)OCOC(=O)c1[nH]nnc1Oc1ccc2cc(Cl)ccc2c1 [Compound 239, (isobutyryloxy)methyl 4-((6-chloronaphthalen-2-yl)oxy)-1H-1,2,3-triazole-5-carboxylate] was tested, and the IC50 was 100 to 1000 nM.
CC(C)(C)OC(=O)N1CCCCC1C(=O)OCn1nnc(Oc2ccc(Cl)c(Cl)c2)c1C(=O)O (stereo not shown) [Compound 240, 1-(((1-(tert-butoxycarbonyl)piperidine-2-carbonyl)oxy)methyl)-4-(3,4-dichlorophenoxy)-1H-1,2,3-triazole-5-carboxylic acid] gave an IC50 of 1000 to 10000 nM.
In the case of O=C(O)c1[nH]nnc1OC1Cc2cc(Cl)c(Cl)cc2C1 [Compound 241, 4-((5,6-dichloro-2,3-dihydro-1H-inden-2-yl)oxy)-1H-1,2,3-triazole-5-carboxylic acid 2,2,2-trifluoroacetate], the IC50 is reported as < 100 nM.
For O=C(O)c1[nH]nnc1Oc1ccc(-c2ccc(C3CCOCC3)cc2)cc1 [Compound 242, 4-((4′-(tetrahydro-2H-pyran-4-yl)-[1,1′-biphenyl]-4-yl)oxy)-1H-1,2,3-triazole-5-carboxylic acid], the IC50 was < 100 nM.
With O=C(O)c1[nH]nnc1CSc1ccc(Cl)c(Cl)c1 [Compound 243, 4-(((3,4-dichlorophenyl)thio)methyl)-1H-1,2,3-triazole-5-carboxylic acid] the IC50 was < 100 nM.
Compound CC(C)C(=O)OCOC(=O)c1[nH]nnc1Sc1ccc(-c2ccc(N3CCCCC3)cc2)cc1 [Compound 244, (isobutyryloxy)methyl 4-((4′-(piperidin-1-yl)-[1,1′-biphenyl]-4-yl)thio)-1H-1,2,3-triazole-5-carboxylate] has an IC50 of 1000 to 10000 nM.
Work on CC(C)N1CCCc2ccc(Oc3nn[nH]c3C(=O)O)cc21 [Compound 245, 4-((1-isopropyl-1,2,3,4-tetrahydroquinolin-7-yl)oxy)-1H-1,2,3-triazole-5-carboxylic acid 2,2,2-trifluoroacetate] yielded an IC50 of 1000 to 10000 nM.
CN1CCN(c2cccc(-c3ccc(Oc4nn[nH]c4C(=O)O)cc3)c2)CC1 [Compound 246, 4-((3′-(4-methylpiperazin-1-yl)-[1,1′-biphenyl]-4-yl)oxy)-1H-1,2,3-triazole-5-carboxylic acid 2,2,2-trifluoroacetate] gave an IC50 of 100 to 1000 nM.
In the case of O=C(O)c1[nH]nnc1Sc1ccc(-c2cccc(C3CCCCC3)c2)cc1 [Compound 247, 4-((3′-cyclohexyl-[1,1′-biphenyl]-4-yl)thio)-1H-1,2,3-triazole-5-carboxylic acid], the IC50 is reported as < 100 nM.
Compound O=C(OCOC(=O)c1[nH]nnc1Oc1ccc2cc(Cl)ccc2c1)c1ccccc1 [Compound 249, (benzoyloxy)methyl 4-((6-chloronaphthalen-2-yl)oxy)-1H-1,2,3-triazole-5-carboxylate] has an IC50 of 1000 to 10000 nM.
O=C(O)c1[nH]nnc1Oc1ccc(-c2ccc3cccnc3c2)cc1 [Compound 250, 4-(4-(quinolin-7-yl)phenoxy)-1H-1,2,3-triazole-5-carboxylic acid 2,2,2-trifluoroacetate] was tested, and the IC50 was < 100 nM.
With CC(C)(C)C(=O)OCOC(=O)c1[nH]nnc1Oc1ccc2cc(Cl)ccc2c1 [Compound 251, (pivaloyloxy)methyl 4-((6-chloronaphthalen-2-yl)oxy)-1H-1,2,3-triazole-5-carboxylate] the IC50 was 1000 to 10000 nM.
In the case of CC(C)C(=O)OCOC(=O)c1[nH]nnc1Oc1ccc2c(c1)CCCC2 [Compound 252, (isobutyryloxy)methyl 4-((5,6,7,8-tetrahydronaphthalen-2-yl)oxy)-1H-1,2,3-triazole-5-carboxylate], the IC50 is reported as 100 to 1000 nM.
With O=C(O)c1[nH]nnc1Oc1cccc(OC2CC2)c1 [Compound 253, 4-(3-cyclopropoxyphenoxy)-1H-1,2,3-triazole-5-carboxylic acid 2,2,2-trifluoroacetate] the IC50 was < 100 nM.
With O=C(O)c1[nH]nnc1Oc1ccc(Cl)c(OC(F)(F)F)c1 [Compound 254, 4-(4-chloro-3-(trifluoromethoxy)phenoxy)-1H-1,2,3-triazole-5-carboxylic acid] the IC50 was < 100 nM.
In the case of CC(=O)NCCOc1ccc(-c2ccc(Oc3nn[nH]c3C(=O)O)cc2)cc1 [Compound 255, 4-((4′-(2-acetamidoethoxy)-[1,1′-biphenyl]-4-yl)oxy)-1H-1,2,3-triazole-5-carboxylic acid], the IC50 is reported as < 100 nM.
Compound CC(C)C(=O)OCOC(=O)c1[nH]nnc1OC1CCc2cc(Cl)c(Cl)cc2C1 (stereo not shown) [Compound 256, (isobutyryloxy)methyl 4-((6,7-dichloro-1,2,3,4-tetrahydronaphthalen-2-yl)oxy)-1H-1,2,3-triazole-5-carboxylate] has an IC50 of 100 to 1000 nM.
For O=C(O)c1[nH]nnc1Oc1ccc(-c2ccc3cnccc3c2)cc1 [Compound 257, 4-(4-(isoquinolin-6-yl)phenoxy)-1H-1,2,3-triazole-5-carboxylic acid], the IC50 was < 100 nM.
Compound CC(C)(C)C(=O)OCOC(=O)c1[nH]nnc1OC1CCc2cc(Cl)c(Cl)cc2C1 (stereo not shown) [Compound 258, (pivaloyloxy)methyl 4-((6,7-dichloro-1,2,3,4-tetrahydronaphthalen-2-yl)oxy)-1H-1,2,3-triazole-5-carboxylate] has an IC50 of 1000 to 10000 nM.
For CC(=O)NCCOc1cccc(-c2ccc(Oc3nn[nH]c3C(=O)O)cc2)c1 [Compound 259, 4-((3′-(2-acetamidoethoxy)-[1,1′-biphenyl]-4-yl)oxy)-1H-1,2,3-triazole-5-carboxylic acid], the IC50 was < 100 nM.
O=C(O)c1[nH]nnc1OC1CCN(c2ccc3cnccc3c2)CC1 [Compound 260, 4-((1-(isoquinolin-6-yl)piperidin-4-yl)oxy)-1H-1,2,3-triazole-5-carboxylic acid 2,2,2-trifluoroacetate] was tested, and the IC50 was 100 to 1000 nM.
With O=C(OCOC(=O)c1[nH]nnc1OC1CCc2cc(Cl)c(Cl)cc2C1)c1ccccc1 (stereo not shown) [Compound 261, (benzoyloxy)methyl 4-((6,7-dichloro-1,2,3,4-tetrahydronaphthalen-2-yl)oxy)-1H-1,2,3-triazole-5-carboxylate] the IC50 was 1000 to 10000 nM.
In the case of O=C(O)c1[nH]nnc1Oc1cccc(OCC2CC2)c1 [Compound 262, 4-(3-(cyclopropylmethoxy)phenoxy)-1H-1,2,3-triazole-5-carboxylic acid 2,2,2-trifluoroacetate], the IC50 is reported as < 100 nM.
For O=C(O)c1[nH]nnc1Oc1ccc(C2CCOCC2)cc1 [Compound 263, 4-(4-(tetrahydro-2H-pyran-4-yl)phenoxy)-1H-1,2,3-triazole-5-carboxylic acid 2,2,2-trifluoroacetate], the IC50 was < 100 nM.
O=C(O)c1[nH]nnc1COc1ccc(Cl)c(Cl)c1 [Compound 264, 4-((3,4-dichlorophenoxy)methyl)-1H-1,2,3-triazole-5-carboxylic acid 2,2,2-trifluoroacetate] was tested, and the IC50 was < 100 nM.
O=C(O)c1[nH]nnc1COc1ccc(-c2ccc(OC(F)(F)F)cc2)cc1 [Compound 265, 4-(((4′-(trifluoromethoxy)-[1,1′-biphenyl]-4-yl)oxy)methyl)-1H-1,2,3-triazole-5-carboxylic acid] was tested, and the IC50 was < 100 nM.
O=C(O)c1[nH]nnc1COc1ccc(-c2ccc(Cl)c(Cl)c2)cc1 [Compound 266, 4-(((3′,4′-dichloro-[1,1′-biphenyl]-4-yl)oxy)methyl)-1H-1,2,3-triazole-5-carboxylic acid 2,2,2-trifluoroacetate] was tested, and the IC50 was < 100 nM.
For CCC(=O)OCOC(=O)c1[nH]nnc1OC1CCc2cc(Cl)c(Cl)cc2C1 (stereo not shown) [Compound 267, (propionyloxy)methyl 4-((6,7-dichloro-1,2,3,4-tetrahydronaphthalen-2-yl)oxy)-1H-1,2,3-triazole-5-carboxylate], the IC50 was < 100 nM.
In the case of O=C(O)c1[nH]nnc1Oc1ccc(C2CC(F)(F)C2)cc1 [Compound 268, 4-(4-(3,3-difluorocyclobutyl)phenoxy)-1H-1,2,3-triazole-5-carboxylic acid], the IC50 is reported as < 100 nM.
With O=C(O)c1[nH]nnc1OCc1ccc(Cl)c(Cl)c1 [Compound 269, 4-((3,4-dichlorobenzyl)oxy)-1H-1,2,3-triazole-5-carboxylic acid] the IC50 was < 100 nM.
O=C(O)c1[nH]nnc1OC1CCN(c2ccc(Cl)cc2)CC1 [Compound 270, 4-((1-(4-chlorophenyl)piperidin-4-yl)oxy)-1H-1,2,3-triazole-5-carboxylic acid 2,2,2-trifluoroacetate] was tested, and the IC50 was < 100 nM.
In the case of O=C(O)c1[nH]nnc1OC1Cc2cc(F)c(F)cc2C1 [Compound 271, 4-((5,6-difluoro-2,3-dihydro-1H-inden-2-yl)oxy)-1H-1,2,3-triazole-5-carboxylic acid], the IC50 is reported as < 100 nM.
